Experimental data reported in patent publication US20150368230A1, “RADIOLABELED QUINAZOLINE DERIVATIVES” (priority 2013, published 2015).

How the values were obtained:
[1] = Metabolite analysis in plasma after injection of tracer; assay type: in vivo, Balb/C mice; conditions: for Parent (%): plasma
Method: The mice were sacrificed at 15 (n=4) and 45 (n=4) min post-injection. At these time points, about 1.5 mL of blood was collected via a heart puncture. […] The cartridge was washed with 5 mL of H2O to collect polar radioactive metabolites. Thereafter, the tC2 Sep-Pak cartridge was eluted with 2 mL of MeOH and 1 mL of H2O to collect the mixture of apolar metabolites. […] HPLC was performed on a Dionex Ultimate 3000 system, equipped with a 1 mL loop. As a stationary phase a Phenomenex Gemini C18, 250×10 mm, 5 μm was used.

[2] = tested on: A549 xenograft; experiment: Biodistribution studies, A549 tumor bearing mice; assay type: in vivo, nude mice (nu/nu); conditions: 5 minutes p.i.
Method: (§1) The mice were sacrificed and dissected at 5, 30, 60 and 120 minutes post-injection. Blood, urine, skin, left tumor, right tumor, muscle, heart, lung, liver, kidney and brain were collected, weighed and counted for radioactivity in a Wallac Compugamma 1210 counter (n=3 for each time point). Biodistribution data are expressed as percentage of injected dose per gram (% ID/g) tissue for each organ (FIG. 2).

[3] = tested on: H1975 xenograft; experiment: Biodistribution studies, H1975 tumor bearing mice; assay type: in vivo, nude mice (nu/nu); conditions: 5 minutes p.i.
Method: as §1

[4] = tested on: HCC827 xenograft; experiment: Biodistribution studies, HCC827 tumor bearing mice; assay type: in vivo, nude mice (nu/nu); conditions: 5 minutes p.i.
Method: as §1

[5] = tested on: A549, H1975 or HCC827 xenografts; experiment: Biodistribution studies, statements for all investigated tumor types; assay type: in vivo, nude mice (nu/nu)
Method: as §1

[6] = tested on: A549 xenograft; experiment: Dynamic PET imaging, A549 xenograft; assay type: in vivo, nude mice; conditions: A549 (insensitive), no blocking
Method: (§2) Dynamic PET imaging was performed on three cancer xenograft (A549, H1975 and HCC827) lines in nude mice. Each mouse (n=3) carried one tumor of the same cancer xenograft line, which were located on the left or right flank. Imaging was performed for a duration of 120 min using a double-LSO/LYSO layer high-resolution research tomograph (HRRT; CTI/Siemens, Knoxville, Tenn., USA). The mice were anesthetized with 4% and 2% isoflurane in 1 L·min^−1 oxygen for induction and maintenance, respectively. First, for attenuation and scatter correction, a transmission scan was acquired using a 740-MBq two-dimensional (2D) fan-collimated ^137Cs (662 keV) moving point source. […] Positron emission scans were acquired in list mode and rebinned into the following frame sequence: 10×60 s, 4×300 s, and 9×600 s. After 120 min, [^18F]FDG was administered (I.V. ocular plexus) to the mice followed by scanning for another 60 min. Following corrections for decay, dead time, scatter and randoms, scans were reconstructed using an iterative 3D ordered-subsets weighted least-squares analysis (3D-OSWLS). Point source resolution varied across the field of view from approximately 2.3 to 3.2-mm full width at half maximum in the transaxial direction and from 2.5 to 3.4 mm in the axial direction. Post-filtering was not performed after reconstruction.

[7] = tested on: H1975 xenograft; experiment: Dynamic PET imaging, H1975 xenograft; assay type: in vivo, nude mice; conditions: H1975 (insensitive), no blocking
Method: as §2

[8] = PET imaging with cold afatinib added to the tracer injection; assay type: in vivo, mice; conditions: cold dose of 100 ng afatinib added
Description: Showing that imaging of the tumor should be done at high specific activity.

[9] = tested on: P-gp; experiment: PET imaging with P-gp blocking by tariquidar

SMILES: CN(C)C/C=C/C(=O)Nc1cc2c(Nc3ccc([18F])c(Cl)c3)ncnc2cc1O[C@H]1CCOC1 [[^18F]afatinib, [^18F](S,E)-N-(4-((3-chloro-4-fluorophenyl)amino)-7-((tetrahydrofuran-3-yl)oxy)quinazolin-6-yl)-4-(dimethylamino)but-2-enamide]
- in vivo stability of the tracer ([1]; metabolic profile of table 1): excellent in vivo stability
- Parent (%) ([1]; 15 min p.i.): 87.5 ± 0.8%
- Parent (%) ([1]; 45 min p.i.): 83.3 ± 1.3%
- blood level of the tracer [2]: 2.17 % ID/g
- blood level of the tracer [3]: 1.59 % ID/g
- blood level of the tracer [4]: 1.56 % ID/g
- uptake in the metabolic organs (kidney and liver) ([5]; mouse, in vivo): rapid and high uptake
- activity remained in the tumor ([5]; tumors, 120 minutes p.i.): around 1 % ID/g
- uptake in tumor compared to background [6]: hardly an increase of uptake in the tumors compared to the background
- uptake in tumor compared to background [7]: hardly an increase of uptake in the tumors compared to the background
- tumor uptake with cold afatinib co-injected [8]: reduced to background levels
- brain uptake ([9]; P-gp active (no block)): washed out from the brain
- brain uptake ([9]; P-gp blocked with tariquidar): remains in the brain
- P-gp substrate status ([9]; absolute tumor uptake increased when P-gp blocked): substrates
- washout after P-gp blocking ([9]; tumor, tariquidar block): hardly shows any washout
